Measured values from PubChem BioAssay (NCI).
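Interpolation was linear, between the two tested concentrations surrounding the appropriate level; five concentrations were tested over 48 hours in 96-well plates. TGI is the concentration that stops growth completely.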

Legend:
Assay in all cases: growth of human tumour cells (NCI), 48 h
[1] = test system: CCRF-CEM leukemia
[2] = test system: MDA-MB-231 breast
[3] = test system: MOLT-4 leukemia
[4] = test system: NCI-H23 lung
[5] = test system: NCI-H522 lung
[6] = test system: OVCAR-5 ovarian
[7] = test system: SNB-75 CNS
[8] = test system: T-47D breast
[9] = test system: UACC-257 melanoma
[10] = test system: UACC-62 melanoma

## O=C1OCC2OC(=O)c3cc(O)c(O)c(O)c3-c3c(O)c(O)c(O)c4c3C(=O)OC(C2OC(=O)c2cc(O)c(O)c(O)c2-c2c1cc(O)c(O)c2O)C1OC(=O)C2C4=C(O)C(=O)C23Oc2cc(O)c4c(c2[C@H]13)O[C@H](c1ccc(O)c(O)c1)[C@@H](O)C4 (stereo not given in full)
[1]
  TGI: > 100 µM
[2]
  TGI: 43.5 µM
[3]
  TGI: 54 µM
[4]
  TGI: 47.3 µM
[5]
  TGI: 50.4 µM
[6]
  TGI: 36.2 µM
[7]
  TGI: 76 µM
[8]
  TGI: 74.8 µM
[9]
  TGI: > 100 µM
[10]
  TGI: 45.6 µM

## O=[N+]([O-])c1c(F)c(F)c2c(c1F)N(CCCCCl)c1ccccc1S2
[1]
  TGI: 6.35 µM
[2]
  TGI: 21.9 µM
[3]
  TGI: > 21.6 µM
[4]
  TGI: 21.7 µM
[5]
  TGI: 12.3 µM
[6]
  TGI: 33.6 µM
[7]
  TGI: 17.2 µM
[8]
  TGI: 27.7 µM
[9]
  TGI: 27.5 µM
[10]
  TGI: 26.9 µM

## CS(=O)(=O)N1CC(CCl)c2ccc(O)cc21 (stereo not given)
[1]
  TGI: 23.8 µM
[2]
  TGI: 6.16 µM
[3]
  TGI: > 100 µM
[4]
  TGI: 7.6 µM
[5]
  TGI: 5.8 µM
[6]
  TGI: 16.3 µM
[7]
  TGI: 8.4 µM
[8]
  TGI: 48.2 µM
[9]
  TGI: 5.95 µM
[10]
  TGI: 28.7 µM

## NCCCN(CCCN)CCc1cn(C(=O)c2ccccc2)cn1
[1]
  TGI: 14.8 µM
[2]
  TGI: 28.8 µM
[3]
  TGI: 17.9 µM
[4]
  TGI: 36.7 µM
[5]
  TGI: 64.9 µM
[6]
  TGI: 33.4 µM
[7]
  TGI: 17.7 µM
[8]
  TGI: 16.8 µM
[9]
  TGI: 25.2 µM
[10]
  TGI: 23 µM
